According to ChEMBL document CHEMBL3301361, “Experimental in vitro DMPK and physicochemical data on a set of publicly disclosed compounds”:
In brackets after ≈: the same amount, converted by molar mass.

Assays:
[1] = physchem; conditions: octan-1-ol/water, pH 7.4, LogD7.4
[2] = in vitro; conditions: human
[3] = in vitro; conditions: hepatocytes
[4] = physchem; conditions: pH 7.4 buffer
[5] = in vitro; conditions: human, plasma, PPB

| Structure (SMILES) | logD [1] | microsomal CLint ([2]; liver microsomes) [µL/min/mg] | hepatocyte CLint [3] [µL/min/1e6 cells] | microsomal CLint ([2]; microsomes) [µL/min/mg] | solubility thermodynamic [4] [µM] | fraction unbound at 5 h [5] |
| --- | --- | --- | --- | --- | --- | --- |
| c1ccc(Nc2[nH]nnc2-c2ccccc2)cc1 | 3.37 | 119 | 111 | – | – | – |
| Cc1ccc(-c2nnc(SCC(=O)N3CCN(c4ccccc4)CC3)o2)cc1 | – | – | > 150 | > 150 | – | – |
| Cc1ccc(S(=O)(=O)Nc2c(C(=O)N(C)C3CCCCC3)c(C)nn2-c2ccccc2)cc1 | 1.69 | 53 | 21 | – | – | – |
| CCc1cccc2c1N(C)Cc1cc3c(cc1-2)OCO3 | – | 44.7 | > 150 | – | – | – |
| COc1ccc(CNC(=O)CSc2nc3cccnc3s2)cc1 | 2.5 | – | > 150 | > 150 | – | – |
| O=C(O)[C@H](Cc1ccccc1)N1CCC(CN2CCC(Oc3ccc(CO)c(Cl)c3)CC2)CC1 | 0.8 | < 3 | 28 | – | – | – |
| Cc1cnc(Nc2ccc(F)cc2Cl)nc1-c1c[nH]c(C(=O)N[C@H](CO)c2cccc(Cl)c2)c1 | – | – | 12.9 | 25.1 | – | – |
| CCn1c(SCC(=O)Nc2cccc(C)c2)nnc1-c1ccccc1 | – | – | > 150 | > 150 | – | – |
| COc1cc2c(Nc3ccc(F)c(Cl)c3)c(C(N)=O)cnc2cc1OCCN(C)CCO | 3.2 | 27.5 | 12.6 | – | – | – |
| CCn1c(SCC(=O)Nc2cc(C)on2)nnc1-c1ccccc1 | – | 32.4 | > 150 | – | – | – |
| CNC(=O)c1nc(-c2ccc(Cl)c(S(=O)(=O)Nc3cccc(F)c3F)c2)cnc1N | 2.8 | 51.3 | 19.9 | – | – | – |
| O=c1[nH]c2c(O)ccc([C@@H](O)CNCCCSCCNCCc3ccccc3Cl)c2s1 | – | 11 | 12 | – | – | – |
| COc1c(Nc2ccc(S(C)(=O)=O)nc2C)ncnc1OC1CCN(C(=O)OC(C)C)CC1 [ADP-597] | 2.4 | – | 6.31 | 19.9 | – | – |
| O=c1c2c3n(c(=O)cc2[nH]n1-c1ccccc1Cl)CCCN(Cc1ccccc1)C3 | – | – | < 3 | 32.4 | – | – |
| CCOC(=O)c1c(-c2ccccc2)nc2ccc(C)cn12 | – | – | 126 | > 150 | – | – |
| C[C@@H](O)[C@H]1C(=O)N2C(C(=O)O)=C(SC3CN(C4=NCCS4)C3)[C@H](C)[C@H]12 [TEBIPENEM] | – | 23.4 | 4.79 | – | – | – |
| O=c1[nH]c2c(O)ccc([C@@H](O)CNCCc3cccc(CNCCCc4ccccc4)c3)c2s1 | 1.11 | 9 | 19 | – | – | – |
| O=C(Nc1ncc(F)s1)C(CC1CCOCC1)c1ccc(S(=O)(=O)C2CC2)cc1 (stereo unspecified) | 3.3 | 33.1 | 5.5 | – | – | – |
| Cc1cc2cc(C)c3nnc(SCC(=O)N4CCN(C(=O)c5ccco5)CC4)n3c2cc1C | 2.8 | > 150 | 57.5 | – | – | – |
| N#Cc1ccc(C(=O)Nc2ccc(-n3ccnc3)nc2)cc1 | – | – | 20.4 | 6.31 | – | – |
| N#CC1(NC(=O)[C@@H]2CCCC[C@H]2C(=O)N2CCN(c3nc4ccncc4s3)CC2)CC1 | – | – | 6.61 | 17.8 | – | – |
| COc1ccc(CNCc2cccc(CCNC[C@H](O)c3ccc(O)c4[nH]c(=O)sc34)c2)cc1 | 0.86 | 62 | 13 | – | – | – |
| COc1ccc(N(C(=O)c2ccco2)C(C(=O)NC2CCCC2)c2ccccc2F)c(OC)c1 (stereo unspecified) | – | > 150 | > 150 | – | – | – |
| CC(=O)N1N=C(c2ccc(Br)cc2)CC1c1ccc(C)cc1 (stereo unspecified) | – | 41.7 | 30.9 | – | – | – |

| Structure (SMILES) | logD [1] | microsomal CLint ([2]; liver microsomes) [µL/min/mg] | hepatocyte CLint [3] [µL/min/1e6 cells] | microsomal CLint ([2]; microsomes) [µL/min/mg] | solubility thermodynamic [4] [µM] | fraction unbound at 5 h [5] |
| --- | --- | --- | --- | --- | --- | --- |
| Cc1c2c(=O)n(-c3ccccc3Cl)[nH]c2cc(=O)n1Cc1ccccn1 | 0.2 | < 3 | < 3 | – | – | – |
| O=C(O)CCc1ccc(OCc2cccc(Oc3ccccc3)c2)cc1 | 2.47 | – | 97.7 | 4.9 | – | – |
| N[C@@H]1CCCN(c2c(/C=C3\SC(=O)NC3=O)cccc2-c2ccncc2)C1 | 1.56 | 8.51 | 8.91 | – | – | – |
| CCC(CC)NC(=O)c1cnn(C)c1NS(=O)(=O)c1ccc(C)cc1 | 0.36 | 13 | 27 | – | – | – |
| O=C(c1cccc(Cl)c1Cl)N1CCN(c2ccccn2)CC1 | – | > 150 | > 150 | – | – | – |
| CC(C)c1ccc(NC(=O)Cn2cnc3c2c(=O)n(C)c(=O)n3C)cc1 | – | – | 16.6 | 18.2 | – | – |
| Cc1ccc(NC(=O)c2cccc(N3CCOCC3)c2)cc1NC(=O)c1ccc(OCc2cscn2)cc1 | – | – | 20 | 23 | – | – |
| Cc1cc(F)ccc1OC1CCN(CC2CCN([C@@H](Cc3ccc(F)cc3)C(=O)O)CC2)CC1 | – | < 3 | < 3 | – | – | – |
| C[C@@H]1CN(c2ccc(F)cc2C(F)(F)F)CCN1S(=O)(=O)c1ccc(C(N)=O)cc1Cl | – | 6.31 | 63.1 | – | – | – |
| COc1ccc(-c2nc3ccccc3c(=O)[nH]2)cc1 | – | > 150 | > 150 | – | – | – |
| Nc1ccc(-c2ccccc2Cl)cc1 | – | – | 123 | 39.8 | – | – |
| Oc1nc2c(O)ccc(CCNCCOCCCOCCc3ccccc3)c2s1 | – | 56 | > 150 | – | – | – |
| Cc1cccc(C[C@@H](C(=O)O)N2CCC(CN3CCC(Oc4ccc(Cl)c(Cl)c4)CC3)CC2)c1 | – | < 3 | < 3 | – | – | – |
| Cc1ccc(CO)cc1N(C)c1ccnc(Nc2cc(N3CCOCC3)cc(N3CCOCC3)c2)n1 | 2.94 | – | 31.6 | – | 195 (≈ 95.7 µg/mL) | 0.0818 |
| O=C(NCCCCCCNCCc1ccc(O)c2nc(O)sc12)Nc1ccccc1 | – | 11 | 98 | – | – | – |
| C[C@H]1CN(Cc2cc(Cl)ccc2CCC(=O)O)CCN1C(=O)Cc1ccccc1 | – | < 3 | < 3 | – | – | – |
| CCCCn1c(SCC(=O)Nc2cc(C)on2)nnc1-c1ccco1 | – | – | > 150 | > 150 | – | – |
| O=C(NCc1ccccc1)c1ccc2cccnc2c1O | – | 49 | 22.8 | – | – | – |
| COc1ccc(C#Cc2ccc([C@@H]3[C@H](CO)N4CCCCN(C(=O)Nc5cccc(F)c5)C[C@@H]34)cc2)cc1 | – | – | 18.2 | 50.1 | – | – |
| CN(CCc1ccc(O)c2[nH]c(=O)sc12)CCN(C)C(=O)CCOCCc1ccccc1 | – | > 150 | > 150 | – | – | – |
| Cc1cc(OCC(=O)NCc2ccccc2)c2cc(Br)ccc2n1 | – | – | 51.3 | 126 | – | – |
| C[C@@H](O)[C@H]1C(=O)N2C(C(=O)OCOC(=O)C(C)(C)C)=C(SC3CN(C4=NCCS4)C3)[C@H](C)[C@H]12 [TEBIPENEM PIVOXIL] | – | > 150 | > 150 | – | – | – |
| Cc1cccc(NC(=O)Nc2cccc3ccccc23)c1 | – | 70.8 | 91.2 | – | – | – |
| CC1Sc2c(C(=O)O)c(=O)c3cc(F)c(N4CCNCC4)cc3n21 (stereo unspecified) [ULIFLOXACIN] | – | 13.8 | < 3 | – | – | – |

| Structure (SMILES) | logD [1] | microsomal CLint ([2]; liver microsomes) [µL/min/mg] | hepatocyte CLint [3] [µL/min/1e6 cells] | microsomal CLint ([2]; microsomes) [µL/min/mg] | solubility thermodynamic [4] [µM] | fraction unbound at 5 h [5] |
| --- | --- | --- | --- | --- | --- | --- |
| CC(C(=O)O)c1ccc(C(=O)c2cccs2)cc1 (stereo unspecified) [SUPROFEN] | – | – | 16 | < 3 | – | – |
| CCOC(=O)CN(c1ccccc1C)S(=O)(=O)c1ccc(Cl)cc1 | – | 94 | > 150 | – | – | – |
| CC(C)CNc1nc(N2CCN(CC3CCCOC3)CC2)ncc1C(=O)NCc1ccccc1 (stereo unspecified) | – | 95.5 | 89.1 | – | – | – |
| CS(=O)(=O)Nc1ccc(CCOCCCS(=O)(=O)CCNCCc2ccc(O)c3nc(O)sc23)cc1 | – | 28 | 105 | – | – | – |
| CCn1c(SCC(=O)Nc2cc(C)on2)nnc1-c1cccnc1 | – | – | 75.9 | 7.76 | – | – |
| COc1ccc(N(C(C)=O)C(C(=O)NC2CCCC2)c2ccccc2F)c(OC)c1 (stereo unspecified) | – | > 150 | > 150 | – | – | – |
| CCOc1ccc2oc(C(=O)NC(CCSC)c3nc4ncccc4[nH]3)c(C)c2c1 (stereo unspecified) | – | > 150 | 46 | – | – | – |
| Cc1cc(OCC(=O)Nc2ccccc2)c2cc(Br)ccc2n1 | – | – | > 150 | 123 | – | – |
| N#Cc1cnc(N2CCN(C(=O)[C@@H]3CCCC[C@H]3C(=O)NC3(C#N)CC3)CC2)s1 | – | – | 5.25 | 6.76 | – | – |
| COC(=O)C1=C(C)NC2=C(C(=O)CC(C)(C)C2)C1c1ccc(-c2ccc(C(F)(F)F)cc2)cc1 (stereo unspecified) | – | 9.12 | 12.3 | – | – | – |
| Nc1nnc(CCSCCc2nnc(NC(=O)Cc3ccccc3)s2)s1 | – | 55 | 72.4 | – | – | – |
| CC(C)S(=O)(=O)c1ccc(-c2cnc(N)c(C(=O)Nc3ccccc3)n2)cc1 | – | 10 | 20.9 | – | – | – |
| O=C(NCc1ccccc1)c1cc(-c2ccco2)on1 | – | 70.8 | 138 | – | – | – |
| CN(CC(=O)N(Cc1ccc(C2CCCCC2)cc1)c1ccc(C(=O)O)c(O)c1)S(=O)(=O)c1c(F)c(F)c(F)c(F)c1F | – | – | 74.1 | 129 | – | – |
| Cc1ccc2c(NC[C@](O)(CC(C)(C)c3cc(F)cc4c3OCC4)C(F)(F)F)cccc2n1 [MAPRACORAT] | – | > 150 | 50.1 | – | – | – |
| O=C(Nc1cc(-c2ccnc(Nc3ccc(F)cc3)c2)ccn1)C1CCOCC1 | – | – | > 150 | 6.03 | – | – |
| Cn1c(=O)c(-c2c(Cl)cccc2Cl)cc2cnc(Nc3ccc(F)cc3)nc21 | – | – | 6.17 | 132 | – | – |
| CS(=O)(=O)c1ccc(-c2cnc(N)c(C(=O)Nc3ccccc3)n2)cc1 | – | – | 19.1 | 4.17 | – | – |
| O=C(O)Cc1ccccc1N1CCC(CN2CCC(Oc3ccc(Cl)c(Cl)c3)CC2)CC1 | – | < 3 | < 3 | – | – | – |
| CCC(NC(=O)Nc1cc(Cl)ccc1Cl)(C(F)(F)F)C(F)(F)F | – | 7.41 | 22.9 | – | – | – |
| O=C(NS(=O)(=O)c1ccccc1Cl)c1ccc[nH]1 | – | < 3 | 3.31 | – | – | – |
| O=CN(O)CCCP(=O)(O)O [FOSMIDOMYCIN] | – | 3.02 | < 3 | – | – | – |
| Cc1c(Sc2ccc(Cl)cc2)c2cc(F)ccc2n1CC(=O)O | – | < 3 | 34 | – | – | – |
| Cc1cc(NS(=O)(=O)c2ccc(Cl)cc2)no1 | – | – | 8.51 | < 3 | – | – |
